# According to ChEMBL document CHEMBL6120949, “Fully Synthetic TF-Based Self-Adjuvanting Vaccine Simultaneously Triggers iNKT Cells and Mincle and Protects Mice against Tumor Development” (2024):
# Activity calls are given as the source filed them. No cut-off for these calls is given here.
# Assays:
# Mus musculus [1] = assay: Immunization of Balb/c mouse assessed as increase in IFN-gamma level compound administered as liposomes subcutaneously on day 0 in presence of TF followed by administration of booster doses on days 14, 21 and 28 measured on days 21, 27 and 38 by ELISA; assay type: functional, organism-based; details: route sc, time 38.0 day
# MDA-MB-468 [2] = assay: Binding ability of anti-serum derived from compound-vaccinated mouse to TF-negative human MDA-MB-468 cells cultured with FITC-labeled anti-IgG Ab assessed as positive fluorescent peak shift by FACS analysis; assay type: functional, cell-based
# Mus musculus [3] = assay: Immunization of Balb/c mouse assessed as increase in kappa light chain titer compound administered as liposomes subcutaneously on day 0 in presence of TF followed by administration of booster doses on days 14, 21 and 28 measured on days 21, 27 and 38 by ELISA; assay type: functional, organism-based; details: route sc, time 38.0 day
# [4] = molecular target: T1, C-type lectin domain family 4 member E (Homo sapiens) (UniProt Q9ULY5); assay: Binding affinity to Fc-fused human Mincle incubated for 1.5 hrs by ELISA
# T1 sequence (whole entry): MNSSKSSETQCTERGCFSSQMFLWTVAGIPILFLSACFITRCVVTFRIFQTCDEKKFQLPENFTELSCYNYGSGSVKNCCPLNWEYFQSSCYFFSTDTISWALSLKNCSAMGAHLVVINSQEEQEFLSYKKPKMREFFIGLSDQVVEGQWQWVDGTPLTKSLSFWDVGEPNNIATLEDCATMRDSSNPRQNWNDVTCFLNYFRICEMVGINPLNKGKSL
# Mus musculus [5] = assay: Antitumor activity in cyclophosphamide-treated Balb/c mouse assessed as rejection of tumor compound administered as liposomes subcutaneously on day 0 in presence of TF followed by administration of booster doses on days 14, 21 and 28 and implantation of mouse TA3/Ha cells on day 35 measured upto 50 days post-tumor challenge followed by re-implantation of another mouse TA3/Ha cells measured for another 100 days post-tumor challenge; assay type: functional, organism-based; details: route sc, time 185.0 day
# Mus musculus [6] = assay: Immunization of Balb/c mouse assessed as increase in IgG titer compound administered as liposomes subcutaneously on day 0 in presence of TF followed by administration of booster doses on days 14, 21 and 28 measured on days 21, 27 and 38 by ELISA; assay type: functional, organism-based; details: route sc, time 38.0 day
# Mus musculus [7] = assay: (§1) Antitumor activity in cyclophosphamide-treated Balb/c mouse assessed as average survival time compound administered as liposomes subcutaneously on day 0 in presence of TF followed by administration of booster doses on days 14, 21 and 28 and implantation of mouse TA3/Ha cells on day 35 measured upto 50 days post-tumor challenge; assay type: functional; details: route sc; time <= 85 day
# Mus musculus [8] = assay: as §1, with “as” for “as average”, “ratio” for “time”, “challenge relative to control” for “challenge”; assay type: functional; details: route sc; time <= 85 day
# Mus musculus [9] = assay: Immunization of Balb/c mouse assessed as IgG titer compound administered as liposomes subcutaneously on day 0 in presence of TF followed by administration of booster doses on days 14, 21 and 28 measured on days 21, 27 and 38 by ELISA; assay type: functional; details: route sc; time 38 day
# Mus musculus [10] = assay: Immunization of Balb/c mouse assessed as decrease in TF-specific IgM titer compound administered as liposomes subcutaneously on day 0 in presence of TF followed by administration of booster doses on days 14, 21 and 28 measured on days 21, 27 and 38 by ELISA; assay type: functional, organism-based; details: route sc, time 38.0 day
# 4T1-Luc [11] = assay: Cytotoxicity against TF-positive mouse 4T1-Luc cells treated with anti-serum derived from compound-vaccinated mouse for 2 hrs followed by anti-serum washout and addition of rabbit complement serum measured after 1 hr by LDH assay; assay type: functional, cell-based
# MDA-MB-468 [12] = assay: Cytotoxicity against TF-negative human MDA-MB-468 cells treated with anti-serum derived from compound-vaccinated mouse for 2 hrs followed by anti-serum washout and addition of rabbit complement serum measured after 1 hr by LDH assay; assay type: functional, cell-based
# TA3/Ha [13] = assay: Cytotoxicity against TF-positive mouse TA3/Ha cells treated with anti-serum derived from compound-vaccinated mouse for 2 hrs followed by anti-serum washout and addition of rabbit complement serum measured after 1 hr by LDH assay; assay type: functional, cell-based
# 4T1-Luc [14] = assay: Binding ability of anti-serum derived from compound-vaccinated mouse to TF-positive mouse 4T1-Luc cells cultured with FITC-labeled anti-IgG Ab assessed as positive fluorescent peak shift by FACS analysis; assay type: functional, cell-based
# Mus musculus [15] = assay: Antitumor activity in cyclophosphamide-treated surviving Balb/c mouse assessed as increase in IgG antibody titer compound administered as liposomes subcutaneously on day 0 in presence of TF followed by administration of booster doses on days 14, 21 and 28 and implantation of mouse TA3/Ha cells on day 35 measured upto 50 days post-tumor challenge followed by re-implantation of another mouse TA3/Ha cells measured for another 30 days post-tumor challenge by ELISA; assay type: functional, organism-based; details: route sc, time <= 115.0 day
# TA3/Ha [16] = assay: Binding ability of anti-serum derived from compound-vaccinated mouse to TF-positive mouse TA3/Ha cells cultured with FITC-labeled anti-IgG Ab assessed as positive fluorescent peak shift by FACS analysis; assay type: functional, cell-based
# Mus musculus [17] = assay: as §1, with “protection against tumor development” for “average survival time”; assay type: functional, organism-based; details: route sc, time <= 85.0 day
# TA3/Ha [18] = assay: Binding ability of anti-serum derived from compound-vaccinated surviving mouse to TF-positive mouse TA3/Ha cells cultured with FITC-labeled anti-IgG Ab assessed as positive fluorescent peak shift by FACS analysis; assay type: functional, cell-based
# Mus musculus [19] = assay: as §1, with “in” for “in cyclophosphamide-treated”; assay type: functional; details: route sc; time <= 85 day
# Mus musculus [20] = assay: as §1, with “in” for “in cyclophosphamide-treated”, “as” for “as average”, “ratio” for “time”, “challenge relative to control” for “challenge”; assay type: functional; details: route sc; time <= 85 day
# Mus musculus [21] = assay: Immunization of Balb/c mouse assessed as IFN-gamma level compound administered as liposomes subcutaneously on day 0 in presence of TF followed by administration of booster doses on days 14, 21 and 28 measured on days 21, 27 and 38 by ELISA; assay type: functional; details: route sc; time 38 day
# Mus musculus [22] = assay: Immunization of Balb/c mouse assessed as increase in IgG2a titer compound administered as liposomes subcutaneously on day 0 in presence of TF followed by administration of booster doses on days 14, 21 and 28 measured on days 21, 27 and 38 by ELISA; assay type: functional, organism-based; details: route sc, time 38.0 day
# [23] = molecular target: T2, Antigen-presenting glycoprotein CD1d1 (Mus musculus) (UniProt P11609); assay: Binding affinity to His-tagged mouse CD1d incubated for 1.5 hrs by ELISA
# T2 sequence (whole entry): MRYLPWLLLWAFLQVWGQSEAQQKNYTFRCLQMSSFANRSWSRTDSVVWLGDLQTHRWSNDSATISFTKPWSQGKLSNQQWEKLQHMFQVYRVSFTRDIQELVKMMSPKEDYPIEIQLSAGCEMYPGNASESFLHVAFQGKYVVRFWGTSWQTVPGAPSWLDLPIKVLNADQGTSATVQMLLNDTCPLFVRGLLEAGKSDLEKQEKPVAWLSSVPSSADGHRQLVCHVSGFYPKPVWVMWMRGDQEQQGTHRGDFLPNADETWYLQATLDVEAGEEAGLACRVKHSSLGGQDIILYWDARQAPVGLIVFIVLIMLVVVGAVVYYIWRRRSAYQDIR
SMILES,Activity (Mus musculus [1]),Activity (MDA-MB-468 [2]),Activity (Mus musculus [3]),Activity [4],Activity (Mus musculus [5]),Activity (Mus musculus [6]),Time (Mus musculus [7]) [days],Survival (Mus musculus [8]) [%],Activity (Mus musculus [9]),Activity (Mus musculus [10]),Activity (4T1-Luc [11]),Activity (MDA-MB-468 [12]),Activity (TA3/Ha [13]),Activity (4T1-Luc [14]),Activity (Mus musculus [15]),Activity (TA3/Ha [16]),Activity (Mus musculus [17]),Activity (TA3/Ha [18]),Activity [23],also measured
CCCCCCCCCC(CCCCCCCCC)CC(=O)OC[C@H]1O[C@H](O[C@H]2O[C@H](COC(=O)CC(CCCCCCCCC)CCCCCCCCC)[C@@H](OCCOCCNC(=O)CCC(=O)NCc3cn(CCO[C@H]4O[C@H](CO)[C@H](O)[C@H](O[C@@H]5O[C@H](CO)[C@H](O)[C@H](O)[C@H]5O)[C@H]4NC(C)=O)nn3)[C@H](O)[C@H]2O)[C@H](O)[C@@H](O)[C@@H]1O,Active,inactive,Active; Compound Induced Strong Tf-Specific And T-Cell-Dependent Immune Response,Active,Active,Active,38.8,50,66937,Active; Result Reveals That Efficient Conversion Of Igm To Igg Had Occurred And That Long-Term Secondary Immune Responses Had Been Triggered,Active; Result Reveals That The Anti-Serum Induced By Compound Effectively Activated The Complement System,inactive,Active; Result Reveals That The Anti-Serum Induced By Compound Effectively Activated The Complement System,Active,Active,Active,Active,Active,–,–
CCCCCCCCCCCCCCCCCCCCCCCCCC(=O)N[C@@H](CO[C@H]1O[C@H](CNC(=O)CCCCC(=O)NCCCC[C@H](NC(=O)CCC(=O)NCCOCCO[C@H]2[C@H](O)[C@@H](O)[C@@H](O[C@H]3O[C@H](COC(=O)CC(CCCCCCCCC)CCCCCCCCC)[C@@H](O)[C@H](O)[C@H]3O)O[C@@H]2COC(=O)CC(CCCCCCCCC)CCCCCCCCC)C(=O)NCc2cn(CCO[C@H]3O[C@H](CO)[C@H](O)[C@H](O[C@@H]4O[C@H](CO)[C@H](O)[C@H](O)[C@H]4O)[C@H]3NC(C)=O)nn2)[C@H](O)[C@H](O)[C@H]1O)[C@H](O)[C@H](O)CCCCCCCCCCCCCC,Active,inactive,Active; Compound Induced Strong Tf-Specific And T-Cell-Dependent Immune Response,Active,Active,Active,43.8,75,96611,Active; Result Reveals That Efficient Conversion Of Igm To Igg Had Occurred And That Long-Term Secondary Immune Responses Had Been Triggered,Active; Result Reveals That The Anti-Serum Induced By Compound Effectively Activated The Complement System,inactive,Active; Result Reveals That The Anti-Serum Induced By Compound Effectively Activated The Complement System,Active; Compound-Derived Antibodies In Antiserum Exhibited Strongest Binding Activity,Active; Exhibited Superior Effect,Active; Compound-Derived Antibodies In Antiserum Exhibited Strongest Binding Activity,Active,Active,Active,Time (Mus musculus [19]): 34.5 days; Survival (Mus musculus [20]): 37.5%; Activity (Mus musculus [21]): 263 pg/mL; Activity (Mus musculus [22]): Active
CCCCCCCCCCCCCCCCCCCCCCCCCC(=O)N[C@@H](CO[C@H]1O[C@H](CNC(=O)CCCCC(=O)NCc2cn(CCO[C@H]3O[C@H](CO)[C@H](O)[C@H](O[C@@H]4O[C@H](CO)[C@H](O)[C@H](O)[C@H]4O)[C@H]3NC(C)=O)nn2)[C@H](O)[C@H](O)[C@H]1O)[C@H](O)[C@H](O)CCCCCCCCCCCCCC,Active,inactive,Active; Compound Induced Strong Tf-Specific And T-Cell-Dependent Immune Response,–,Active,Active,34.4,37.5,54112,Active; Result Reveals That Efficient Conversion Of Igm To Igg Had Occurred And That Long-Term Secondary Immune Responses Had Been Triggered,Active; Result Reveals That The Anti-Serum Induced By Compound Effectively Activated The Complement System,inactive,Active; Result Reveals That The Anti-Serum Induced By Compound Effectively Activated The Complement System,Active,Active,Active,Active,Active,Active,–
